Results on 25 compounds are retold here after patent US9393221B2, “Methods and compounds for reducing intracellular lipid storage” (THE GENERAL HOSPITAL CORPORATION, priority 2011, dated 2016).

Molecules are shown by their SMILES. Where a name gives a salt, the structure may show the parent alone.

The subject of one assay is ATGL-KO iPSCs. The assay is described as follows: High throughput iPSC chemical screening, Oil Red O (ORO) lipid accumulation. On Z-score: test concentration or dose not given here. Particulars: glycolytic switch compounds. In kind it is cell-based, mouse.
Take `Clc1ccc(CSC(Cn2ccnc2)c2ccc(Cl)cc2Cl)cc1` (centres unmarked) [Sulconazole nitrate]: the “Rank in normalized ORO score from screen” value was 372.

Staying with this assay, now noted: normalized ORO level vs DMSO-treated cells; compound present during 7 days differentiation, 96-well; negative = decrease in lipid accumulation.
Compound `CN[C@H]1CC[C@@H](c2ccc(Cl)c(Cl)c2)c2ccccc21` [Sertraline hydrochloride] gave a Z-score of −1.6299. Same read-out and setting: the value for `CCC(C)(C)C(=O)O[C@H]1C[C@@H](C)C=C2C=C[C@H](C)[C@H](CC[C@@H]3C[C@@H](O)CC(=O)O3)[C@H]21` [Simvastatin] was 15.173; that for `CN[C@@H]1[C@@H](O)[C@@H](O[C@@H]2[C@@H](O)[C@H](O[C@H]3OC(CN)=CC[C@H]3N)[C@@H](N)C[C@H]2N)OC[C@]1(C)O` [Sisomicin sulfate] was −0.7041; that for `COc1ccc2c(OC)c3ccoc3nc2c1OC` [Skimmianine] was −1.2252. `C[C@@H]1CC[C@@]2(NC1)O[C@H]1C[C@H]3[C@@H]4CC=C5C[C@@H](O)CC[C@]5(C)[C@H]4CC[C@]3(C)[C@H]1[C@@H]2C` [Solasodine] had a Z-score of −0.5386.

Compound `CC(C)NCC(O)c1ccc(NS(C)(=O)=O)cc1` (centres unmarked) [Sotalol hydrochloride] came in with a Z-score of 0.2363. In turn, `CC(=O)N[C@@H](CC(=O)N[C@@H](CCC(=O)O)C(=O)O)C(=O)O` [Spaglumic acid] had a Z-score of 0.9666.

As for `C1CCN2C[C@@H]3C[C@@H](CN4CCCC[C@@H]34)[C@H]2C1` [Sparteine (−)], the Z-score was −0.3524.

Consider `CN[C@@H]1[C@H](O)[C@H](NC)[C@H]2O[C@@]3(O)C(=O)C[C@@H](C)O[C@H]3O[C@@H]2[C@H]1O` [Spectinomycin dihydrochloride], for which the Z-score is given as −0.1287. `O=C(CCCN1CCC2(CC1)C(=O)NCN2c1ccccc1)c1ccc(F)cc1` [Spiperone] registered a Z-score of −1.6819. As to `CC(=O)S[C@@H]1CC2=CC(=O)CC[C@]2(C)[C@H]2CC[C@@]3(C)[C@@H](CC[C@@]34CCC(=O)O4)[C@H]12` [Spironolactone], the Z-score is −1.7632.

On to `C[N+]1(C)CCC[C@H]1C(=O)[O-].Cl` [Stachydrine hydrochloride], for which the Z-score turned out to be 0.2248. Regarding `[H]/N=C(/N)N[C@H]1[C@H](O)[C@@H](O)[C@H](O[C@@H]2O[C@@H](C)[C@](O)(C=O)[C@H]2O[C@@H]2O[C@@H](CO)[C@H](O)[C@@H](O)[C@@H]2NC)[C@@H](N/C(N)=N\[H])[C@@H]1O` [Streptomycin sulfate], the Z-score came to 1.417. Compound `C[C@]12CC[C@H]3[C@@H](CC[C@]4(O)C[C@@H](O)CC[C@]34C=O)[C@@]1(O)CC[C@@H]2C1=CC(=O)OC1` [Strophanthidin] registered a Z-score of 0.6732. `C[C@@H]1O[C@@H](O[C@H]2C[C@@H](O)[C@]3(CO)[C@H]4[C@H](O)C[C@]5(C)[C@@H](C6=CC(=O)OC6)CC[C@]5(O)[C@@H]4CC[C@]3(O)C2)[C@H](O)[C@H](O)[C@H]1O.O.O.O.O.O.O.O.O` [Strophantine octahydrate] gave a Z-score of 3.188. The same measure, in the same setting: the value for `O=C(O)CCC(=O)Nc1ccc(S(=O)(=O)Nc2nccs2)cc1` [Succinylsulfathiazole] was 1.139; that for `Clc1ccc(CSC(Cn2ccnc2)c2ccc(Cl)cc2Cl)cc1` (centres unmarked) [Sulconazole nitrate] was −0.6576; that for `Nc1ccc(S(=O)(=O)NC(=O)c2ccccc2)cc1` [Sulfabenzamide] was 1.96. Consider `CC(=O)[N-]S(=O)(=O)c1ccc(N)cc1.O.[Na+]` [Sulfacetamide sodic hydrate], for which the Z-score was −0.3059.

With `Nc1ccc(S(=O)(=O)Nc2ccc(Cl)nn2)cc1` [Sulfachloropyridazine], the Z-score worked out at 1.134. With `Nc1ccc(S(=O)(=O)Nc2ncccn2)cc1` [Sulfadiazine], the Z-score is reported as 0.09783. `COc1cc(NS(=O)(=O)c2ccc(N)cc2)nc(OC)n1` [Sulfadimethoxine] displayed a Z-score of 0.4077. With `COc1ncnc(NS(=O)(=O)c2ccc(N)cc2)c1OC` [Sulfadoxine], the Z-score was −0.1202. As to `[H]/N=C(/N)NS(=O)(=O)c1ccc(N)cc1` [Sulfaguanidine], the Z-score came out at 1.05. Compound `Cc1ccnc(NS(=O)(=O)c2ccc(N)cc2)n1` [Sulfamerazine] had a Z-score of −0.0984.
